According to article PMC11840605, “Crystallographic and Thermodynamic Evidence of Negative Coupling in the Flavin-Dependent Tryptophan Halogenases AbeH and BorH” (ACS Omega, 2025):
Several values for one entry are separate records, joined by “and”; a condition that tells them apart may be missing. Equal values may be shown once. Entries after “also recorded” stand apart in the source; their conditions may differ.

Legend:
BorH [1] = target: T1, BorH (uncultured bacterium, UniProt M9QSI0); details: previously shown; cited from earlier work
T1 sequence (M9QSI0 1-529): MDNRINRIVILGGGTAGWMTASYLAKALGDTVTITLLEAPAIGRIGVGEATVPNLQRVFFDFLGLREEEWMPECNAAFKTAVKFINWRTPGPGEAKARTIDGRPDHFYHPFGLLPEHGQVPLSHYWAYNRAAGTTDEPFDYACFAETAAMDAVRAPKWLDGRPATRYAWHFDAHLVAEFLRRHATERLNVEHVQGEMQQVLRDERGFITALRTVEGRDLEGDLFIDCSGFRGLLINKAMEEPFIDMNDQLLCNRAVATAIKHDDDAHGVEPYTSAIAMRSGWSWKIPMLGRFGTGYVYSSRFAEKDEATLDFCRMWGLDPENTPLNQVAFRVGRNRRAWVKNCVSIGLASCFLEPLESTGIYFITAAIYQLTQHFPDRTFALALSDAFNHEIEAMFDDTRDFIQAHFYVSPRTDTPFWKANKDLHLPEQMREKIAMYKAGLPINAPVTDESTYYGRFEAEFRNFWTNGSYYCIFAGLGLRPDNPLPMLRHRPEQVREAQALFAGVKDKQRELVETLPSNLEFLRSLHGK

AbeH [2] = target: T2, AbeH (uncultured bacterium, UniProt F6LWA5); type: biochemical, uncultured soil actinomycetes; details: NaCl or NaBr reaction
T2 sequence (F6LWA5 entry or part of it): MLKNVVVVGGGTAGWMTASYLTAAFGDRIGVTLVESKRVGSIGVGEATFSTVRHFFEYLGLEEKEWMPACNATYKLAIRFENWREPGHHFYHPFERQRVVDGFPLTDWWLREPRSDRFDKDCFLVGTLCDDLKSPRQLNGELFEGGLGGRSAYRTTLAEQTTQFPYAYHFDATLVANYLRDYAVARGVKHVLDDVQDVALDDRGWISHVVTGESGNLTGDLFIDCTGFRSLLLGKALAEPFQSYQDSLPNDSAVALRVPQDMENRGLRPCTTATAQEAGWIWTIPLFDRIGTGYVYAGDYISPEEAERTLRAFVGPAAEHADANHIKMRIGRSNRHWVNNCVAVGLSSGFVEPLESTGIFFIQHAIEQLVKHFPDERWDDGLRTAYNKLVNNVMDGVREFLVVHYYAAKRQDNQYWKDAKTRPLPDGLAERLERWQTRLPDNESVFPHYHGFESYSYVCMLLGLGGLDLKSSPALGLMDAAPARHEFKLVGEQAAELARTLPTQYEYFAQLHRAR
Method: (§1) To test the ability of BorH and AbeH to chlorinate and brominate other substrates, 100 μL reactions containing 5 μM AbeH or BorH, 10 μM of holo-AbeF or holo-BorF, 100 mM NaCl or NaBr, 2.5 mM NADH, and 0.5 mM substrate in HEPES pH 8.0 were incubated for 12 h at 37 °C with shaking at 230 rpm. The reactions were stopped by heating at 95 °C for 5 min and centrifuged at 12,000g for 5 min. Clarified reaction mixtures were analyzed using RP-HPLC on a Kromasil C18 column (100 Å pore size, 4.6 × 250 mm) mounted on a Waters 2695 HPLC. The gradient was as follows: 0–7.5 min, 5–50% B; 7.5–14 min, 50–100%; 14–25 min, 100% B; 25–40 min 100–5% B with flow rate 0.6 mL/min (Solvent A = H2O/CH3CN 95:5, 0.1% TFA; Solvent B = H2O/CH3CN 5/95, 0.1% TFA). Substrates and products were detected by monitoring UV absorbance at the λmax for each substrate. Product peak fractions were analyzed using ESI-MS on a SYNAPT HDMS mass spectrometer in positive ion mode with leucine enkephalin internal standard.

BorH [3] = target: T1, BorH; assay: In vitro halogenation of aromatic substrates by BorH (with BorF, NADH, NaCl or NaBr; RP-HPLC); type: biochemical, uncultured soil actinomycetes; details: for Halogenation (chlorination/bromination) of the substrate by BorH, in words: NaCl or NaBr reaction; for BorH bromination compared with chlorination of the substrate, in words: same reaction conditions
Method: as §1

AbeH [4] = target: T2, AbeH; assay: Isothermal titration calorimetry, ligand into AbeH; type: binding, uncultured soil actinomycetes
Method: (§2) ITC experiments were performed using a VP-ITC isothermal titration calorimeter (MicroCal) in 20 mM HEPES pH 7.5, 350 mM NaCl, 1 mM ethylenediamine tetraacetic acid (EDTA) and 15% (v/v) glycerol. Solutions of AbeH, BorH, FAD (Chem-Implex), and Trp (Acros Organics) were prepared in the same buffer and degassed under vacuum at 30 °C for 20 min before loading in the syringe or cell. To analyze formation of binary complexes, AbeH or BorH was placed inside the cell, and ligand (FAD or Trp) was injected. For ternary complex titration, one ligand was preincubated with the macromolecule for 30 min at 30 °C to form binary complexes of AbeH/FAD, AbeH/Trp, BorH/FAD, and BorH/Trp before titrating with the second ligand. To test FADH2 binding to AbeH and BorH, FAD was reduced to FADH2 using sodium dithionite and stored under N2. Formation of FADH2 by sodium dithionite was verified using absorbance and fluorescence spectrophotometry.
(§3) ITC experiments were performed with reference power set to 10 μcal/s and Milli-Q water in the reference cell. All experiments were done with a pretitration delay of 20 min, a 5 min interval between injections, and a filter period of 2 s in high feedback gain mode. All experiments were performed at 310 rpm to mix the components in cell and titrant. All other VP-ITC instrumental parameters were set to default settings. Heats of dilution for all titrants were measured by titrating ligand into buffer for binary complex titrations, and by titrating ligand into a solution containing the other ligand but no protein for ternary complex titration.
1.2 mM FAD (2 μL/1 and 5 μL/19 injections) into 18 μM AbeH (Figure 4A)
0.12 mM FADH2 (2 μL/1 and 15 μL/19 injections) into 7 μM AbeH in the presence of sodium dithionite (Figure 4B)
1.4 mM Trp (3 μL/1 and 10 μL/29 injections) into 43 μM AbeH (Figure S7)
16 mM Trp (2 μL/1 and 10 μL/29 injections) into 18 μM AbeH (Figure 5A)
(§4) Titrations were analyzed by manually integrating each injection, subtracting the heat of dilution, and carrying out nonlinear least-squares fit of the calorimetric binding data to a one-site model using Origin 7.0 (Origin Lab). Trp binding experiments were subtracted by point-by-point heat of dilution, and FAD and FADH2 binding experiments were subtracted using the mean heat of the last three injections. For the Trp binding data, n was fixed to 1 based on expected stoichiometry of 1:1 based on FDH crystal structures and as proposed for lower c-value titrations in the literature.[23],[25],[82] The other parameters were not constrained during fitting.

BorH [5] = target: T1, BorH; assay: Isothermal titration calorimetry, ligand into BorH; type: binding, uncultured soil actinomycetes
Method: as §2, with “Solutions” for “ITC experiments were performed using a VP-ITC isothermal titration calorimeter (MicroCal) in 20 mM HEPES pH 7.5, 350 mM NaCl, 1 mM ethylenediamine tetraacetic acid (EDTA) and 15% (v/v) glycerol. Solutions”
as §3, §4

BorF = details: read-out: KD, flavin binding to BorF; cited from earlier work
AbeF = details: read-out: KD, flavin binding to AbeF; cited from earlier work

| SMILES | Halogenation of the substrate by BorH, in words (BorH [1]) | Halogenation (chlorination/bromination) of the substrate by AbeH, in words (AbeH [2]) | Halogenation (chlorination/bromination) of the substrate by BorH, in words (BorH [3]) | BorH bromination compared with chlorination of the substrate, in words (BorH [3]) | also measured |
| --- | --- | --- | --- | --- | --- |
| Nc1ccccc1C(=O)CC(N)C(=O)O (centres unmarked) [kynurenine] | halogenate |  |  |  |  |
| NCCc1c[nH]c2ccccc12 [Tryptamine] | halogenate | No activity |  |  |  |
| Nc1ccc2cccnc2c1 [7-aminoquinoline] |  | chlorinated and brominated | could not halogenate; also recorded: No activity |  |  |
| Nc1ccc2c(c1)NC(=O)CO2 [6-amino-2h-1,4-benzoxazin-3(4H)-one, 6-amino-2H-1,4-benzoxazin-3(4H)-one] |  | did not halogenate; also recorded: No activity | could halogenate | higher rate of bromination than chlorination |  |
| NCCc1c[nH]c2ccc(O)cc12 [Serotonin] |  | did not halogenate; also recorded: No activity |  |  |  |
| Cc1cc2c(cc1C)N(C[C@H](O)[C@H](O)[C@H](O)COP(=O)(O)OP(=O)(O)OC[C@H]1O[C@@H](n3cnc4c(N)ncnc43)[C@H](O)[C@@H]1O)c1[nH]c(=O)[nH]c(=O)c1N2 [FADH2] |  |  |  |  | Kd (AbeH [4]; ITC, read-out: KD, binding to AbeH, ITC): 100 nM and 120 nM; -TDS (-TΔS, ITC, Table S3) (AbeH [4]; cell AbeH): 5.7 kcal/mol; DG (ΔG, ITC, Table S3) (AbeH [4]; cell AbeH): -9.6 kcal/mol; DH (ΔH, ITC, Table S3) (AbeH [4]; cell AbeH): -15.3 ± 0.7 kcal/mol; n (ITC, Table S3) (AbeH [4]; cell AbeH): 0.82 ± 0.03; Kd (BorH [5]; ITC, read-out: KD, binding to BorH, ITC): 200 nM and 210 nM; -TDS (-TΔS, ITC, Table S3) (BorH [5]; cell BorH): 15 kcal/mol; DG (ΔG, ITC, Table S3) (BorH [5]; cell BorH): -9.2 kcal/mol; DH (ΔH, ITC, Table S3) (BorH [5]; cell BorH): -24.2 ± 1.6 kcal/mol; n (ITC, Table S3) (BorH [5]; cell BorH): 0.97 ± 0.05; Kd (BorF): 800 nM; Kd (AbeF): 1500 nM |
| O=C(O)CCc1c[nH]c2ccccc12 [3-indolepropionic acid] | halogenate | halogenated |  |  |  |
| N#Cc1ccc2[nH]ccc2c1 [5-cyanoindole] |  | did not halogenate; also recorded: No activity |  | higher rate of bromination than chlorination |  |
| c1ccc2[nH]ccc2c1 [Indole] |  | efficiently chlorinated and brominated |  | higher rate of bromination than chlorination |  |
| Nc1ccc2ncccc2c1 [6-aminoquinoline] | halogenate | chlorinated and brominated | halogenated | higher rate of bromination than chlorination |  |
| N[C@@H](Cc1c[nH]c2ccc(O)cc12)C(=O)O [5-hydroxytryptophan] |  | did not halogenate; also recorded: No activity |  |  |  |
| NC(=O)c1ccccc1N [Anthranilamide] | halogenate | halogenated | halogenated |  |  |
